Values of other authors in US20020090664A1, “Methods for measuring stress in mammals” (priority 2000, published 2002).

System: salivary cortisol
Conditions: adults exposed to the fragrance before the stressful event, compared with challenge without fragrance; Tanizawa, JP Patent No.11-19076

For `Cc1c[nH]c2ccccc12` [skatole], which “effect of fragrance on stress induced release of cortisol (salivary cortisol levels)” value is on record?
Its value is “opposite effect”.
